Data taken from PubChem BioAssay (NCI).
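Five compound concentrations were applied to cells in 96-well plates for 48 hours; endpoints were derived by simple linear interpolation of the resulting dose-response curve. Abbreviation: GI50, concentration required for 50% inhibition of growth. TGI denotes the concentration required for complete inhibition of growth.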

What was measured:
Test in all cases: inhibition of tumour cell growth, NCI panel, 48 h
OVCAR-4 ovarian = system: OVCAR-4 ovarian
DLD-1 colon = system: DLD-1 colon
NCI-H460 lung = system: NCI-H460 lung
SF-295 CNS = system: SF-295 CNS
ACHN renal = system: ACHN renal
SK-MEL-2 melanoma = system: SK-MEL-2 melanoma
UACC-62 melanoma = system: UACC-62 melanoma
HT29 colon = system: HT29 colon
HCT-15 colon = system: HCT-15 colon
SNB-78 CNS = system: SNB-78 CNS

| Compound | GI50 (OVCAR-4 ovarian) | TGI (OVCAR-4 ovarian) | GI50 (DLD-1 colon) | TGI (DLD-1 colon) | GI50 (NCI-H460 lung) | TGI (NCI-H460 lung) | GI50 (SF-295 CNS) | TGI (SF-295 CNS) | GI50 (ACHN renal) | TGI (ACHN renal) | GI50 (SK-MEL-2 melanoma) | TGI (SK-MEL-2 melanoma) | GI50 (UACC-62 melanoma) | TGI (UACC-62 melanoma) | GI50 (HT29 colon) | TGI (HT29 colon) | GI50 (HCT-15 colon) | TGI (HCT-15 colon) | TGI (SNB-78 CNS) |
| --- | --- | --- | --- | --- | --- | --- | --- | --- | --- | --- | --- | --- | --- | --- | --- | --- | --- | --- | --- |
| C1C[OH+]CCNCC[OH+]CC[OH+]CCN1.N.[Cl-].[Pt+4] | > 100 µM | > 100 µM | 46.1 µM | > 100 µM | 93 µM | > 100 µM | 49 µM | > 100 µM | 42 µM | > 100 µM | 47.2 µM | > 100 µM | 31.6 µM | > 100 µM | 43.7 µM | > 100 µM | 40.4 µM | > 100 µM |  |
| Cc1cc(=O)oc2cc3oc(N(C)c4ccccc4)nc(=O)c3cc12 |  | > 100 µM |  |  |  | > 100 µM |  | > 100 µM |  | > 100 µM |  | > 100 µM |  | > 100 µM |  | > 100 µM |  | > 100 µM |  |
| O=c1oc2ccc(Cl)cc2c(=O)n1-c1ccc(F)cc1F | 1.11 µM | > 100 µM |  |  | 2.2 µM | 11.5 µM | 1.76 µM | 3.55 µM | 2.14 µM | 6.08 µM | 1.13 µM | 3.97 µM | 0.608 µM | 3.84 µM | 3.52 µM | 38.8 µM | 2.32 µM | 13.5 µM |  |
| CCc1cccc(NC(=O)Nc2ccc(Oc3ccc4nc(NC(=O)OC)[nH]c4c3)cc2)c1 | 4.45 µM | 9.89 µM |  |  | 3.4 µM | 12.4 µM | 3.4 µM | > 20.4 µM | 10.8 µM | > 25 µM | 2.94 µM | 12.3 µM | 1.93 µM | 10.1 µM | 2.04 µM | > 13.4 µM | 2.93 µM | > 25 µM |  |
| CCCCc1n(Cc2ccc3ccccc3n2)cc[n+]1Cc1ccc2ccccc2n1 | 0.381 µM | 13.5 µM |  |  | 1.87 µM | 11.3 µM | 2.45 µM | 9.88 µM | 17 µM | 42 µM | 1.43 µM | 5.58 µM | 0.749 µM | 3.56 µM | 0.801 µM | 7.89 µM | 14.8 µM | 31.5 µM |  |
| C/C(CC(C)(C)N1CC1)=N\NC(=O)Nc1cccc2ccccc12 | 4.23 µM | 15.9 µM |  |  | 2.86 µM | 10 µM | 7.01 µM | 35.5 µM | 2.99 µM | 11.8 µM | 2.24 µM | 5.45 µM | 4.06 µM | 15.8 µM | 3.5 µM | 13.7 µM | 3.24 µM | 17.4 µM |  |
| N#CC1(N2CCCC2)CCC2(CC1)OCCO2 |  | > 100 µM |  |  |  | > 100 µM |  | > 100 µM |  | > 100 µM |  | > 100 µM |  | > 100 µM |  | > 100 µM |  | > 100 µM | > 100 µM |
| COc1cc(NS(C)(=O)=O)ccc1Cc1c2ccccc2nc2ccccc12 | 1.25 µM | 2.52 µM |  |  | < 0.012 µM | 1.06 µM | 0.0475 µM | 1.22 µM | 0.0463 µM | 1.11 µM | 1.43 µM | 3.2 µM | 0.101 µM | 1.67 µM | 0.3 µM | 1.82 µM | 0.371 µM | 2.76 µM |  |
| CCN1C(=O)N(CC)C2C1NN=c1s/c(=C\c3ccc(C(F)(F)F)cc3)c(=O)n12 (configuration not stated) | 0.839 µM | > 74.5 µM |  |  | 0.365 µM | 10.9 µM | 0.33 µM | 31.2 µM | 0.808 µM | 30.5 µM | 0.859 µM | > 52.3 µM | 0.577 µM | > 44.7 µM | 0.352 µM | 11.8 µM | 0.318 µM | > 35.6 µM |  |
| Cc1ccc(-c2nc(/C=N/Nc3cc(C)nc4ccc(Br)cc34)c(C)o2)cc1 | 1.89 µM | 3.49 µM |  |  | 1.94 µM | 3.73 µM | 2.86 µM | 8.8 µM | 1.8 µM | 3.21 µM | 19.7 µM | 41.2 µM | 1.73 µM | 3.36 µM | 1.92 µM | 3.82 µM | 1.86 µM | 3.64 µM |  |
| CCn1c(SCC(=O)Nc2cc(C(F)(F)F)ccc2Cl)nc2ccccc2c1=O | 22.5 µM | > 100 µM |  |  | 30.5 µM | > 100 µM | 71.9 µM | > 100 µM | 22.6 µM | > 100 µM | 24.6 µM | 72.3 µM | 38.4 µM | > 100 µM | > 100 µM | > 100 µM | 8.46 µM | > 100 µM |  |
| CCOC(=O)c1c2c(n3ccc(NC(=O)CCN4CCCCC4)cc13)C(=O)c1ncccc1C2=O | 1.42 µM | 3.56 µM |  |  | < 0.01 µM | 0.443 µM | 0.121 µM | 1.92 µM | < 0.01 µM | 1.51 µM | 3.99 µM | 23.8 µM | 0.281 µM | 2.65 µM | 1.3 µM | 3.1 µM | 1.13 µM | 2.86 µM |  |
| FC(F)(F)c1nc(SCc2ccc(Cl)cc2)n[nH]1 |  | > 100 µM |  |  |  | > 100 µM |  | > 100 µM |  | > 100 µM |  | > 100 µM |  | > 100 µM |  | > 100 µM |  | > 100 µM |  |
| O=C(Nc1ccccc1Cl)c1ccc(NC2=C(Cl)C(=O)N(C3CCCCC3)C2=O)cc1 | 25.1 µM | 74.9 µM |  |  | 19.7 µM | 52.1 µM | 26.4 µM | 68.1 µM | 10.6 µM | 30.4 µM | 16.7 µM | 44.1 µM | 6.78 µM | 26.5 µM | 10.8 µM | 30 µM | 6.79 µM | 25.2 µM |  |
| CC1=C2[C@@H](CC1)[C@]1(C)O[C@@](C(C)C)(C[C@H]1OC(=O)CO)[C@H]2OC(=O)CCCc1ccccc1 | 11.9 µM | 29.1 µM |  |  | 9.1 µM | 22.9 µM | 12.5 µM | 24.9 µM | 7.02 µM | 19.3 µM | 11.7 µM | 27.2 µM | 3.42 µM | 13.2 µM | 10.8 µM | 26.1 µM | 9.02 µM | 22.2 µM |  |
| CCN(CC)CCCNc1n[n+]([O-])c2ccccc2[n+]1[O-] |  | > 100 µM |  |  |  | 27.4 µM |  | 49.3 µM |  | 53.1 µM |  | 21.5 µM |  | 26 µM |  | 85.3 µM |  | 31.5 µM |  |
